# Several values for one entry are separate records, joined by “and”; a condition that tells them apart may be missing. Equal values may be shown once.
# Columns and labels:
# [1] = Coagulation parameters (aPTT, PT), day 15; assay type: in vivo, Sprague-Dawley rats; conditions: for ACTIVATED PARTIAL THROMBOPLASTIN TIME: 0.75 mg/kg, group mean; for ACTIVE PARTIAL THROMBOPLASTIN TIME: nicotine 0.75 mg/kg, individual animals, tartrate
# From the text: On day 15, urine was collected on all surviving animals for urinalysis. The animals were euthanized and bled via cardiac puncture. Blood was collected for hematology, clinical chemistry, and coagulation analysis. Tissues were collected, weighed, and stored in 10% neutral-buffered formalin for possible future analysis.
# Individual values for the coagulation parameters activated partial thromboplastin (aPTT) and prothrombin times (PT) for each animal are listed in Table 34 (normal ranges, Table 30). These are summarized in terms of descriptive statistics in Table 25.
# [2] = Body weights, weight gain and food consumption over 14 days after single i.v. dose; assay type: in vivo, Sprague-Dawley rats; conditions: for Mean food consumption/day / Mean weigth increase by day 14 / day 13 B.W. / day 14 B.W. / B.W. day 1 / B.W. day 2 / B.W. day 3 / B.W. day 4 / B.W. day 5 / B.W. day 6 / B.W. day 7 / B.W. day 8 / B.W. day 9 / B.W. day 10 / B.W. day 11 / B.W. day 12: nicotine 0.75 mg/kg single i.v.; for day 13 B.W. / day 14 B.W. / B.W. day 1 / B.W. day 2 / B.W. day 3 / B.W. day 4 / B.W. day 5 / B.W. day 6 / B.W. day 7 / B.W. day 8 / B.W. day 9 / B.W. day 10 / B.W. day 11 / B.W. day 12 / Average Daily Food Consumption per Rat: tartrate; for B.W. day 1 / B.W. day 2 / B.W. day 3 / B.W. day 4 / B.W. day 5 / B.W. day 6 / B.W. day 7 / B.W. day 8 / B.W. day 9 / B.W. day 10 / B.W. day 11 / B.W. day 12: individual animals; for Average Daily Food Consumption per Rat: nicotine 0.75 mg/kg, per cage (cage 1, 2)
# Protocol: Body weight and food consumption was measured daily for 14 days. On day 15, urine was collected on all surviving animals. The animals were euthanized and bled via cardiac puncture, and blood was collected for analysis. Tissues were collected, weighed, evaluated for gross abnormalities, and stored in 10% neutral-buffered formalin.
# All animals were observed daily.
# [3] = Physical signs after single i.v. dose (Example 3); assay type: in vivo, Sprague-Dawley rats; conditions: nicotine 0.4 mg/kg single i.v.; all males and two females
# Protocol: Four aliquots of each dose level formulation were collected and stored at −80° C. The test compound, corresponding dose level, number of animals, and sample collection times for Phase I of the study are shown in Table 3. The test compound, corresponding dose level, number of animals, and sample collection times for Phase II of the study are shown in Table 4. The physical signs of each animal were monitored following administration of the test compound.
# nAChR α3/β4 = nAChR α3/β4 (Homo sapiens, UniProt P30926+P32297)
# Protocol: HEK293 or CHO cells were transiently or stably transfected with the appropriate human ion channel cDNAs. Stable transfectants were selected by coexpression with the antibiotic-resistance gene(s) incorporated into the expression plasmid(s). Selection pressure was maintained by including selection antibiotics in the culture medium. HEK293 cells were cultured in Dulbecco's Modified Eagle Medium/Nutrient Mixture F-12 (D-MEM/F-12) supplemented with 10% fetal bovine serum, 100 U/mL penicillin G sodium, 100 g/mL streptomycin sulfate and appropriate selection antibiotics. CHO cells were cultured in Ham's F-12 supplemented with 10% fetal bovine serum, 100 U/mL penicillin G sodium, 100 g/mL streptomycin sulfate and appropriate selection antibiotics.
# For FLIPR TETRA™ assay, cells were plated in 384-well black wall, flat clear bottom microtiter plates (Type: BD Biocoat Poly-D-Lysine Multiwell Cell Culture Plate) at 20,000 to 30,000 cells per well (384-well plate). Cells were incubated at 37° C. overnight or until the cells reached a sufficient density in the wells (near confluent monolayer) to use in fluorescence assays. For α4β2 assay, cells were incubated at 27° C. for at least 7 hours before use.
# Experiments were performed with either the FLIPR calcium sensitive dye kit (Fluo-8, ABDbioquest, for nAChR α3/β4 and nAChR α7) or FLIPR membrane potential kit (Molecular Devices, for nAChR α4/β2) according to the manufacturer's instructions. Briefly, cells were incubated with 201 dye for 30 min at 37° C. After dye loading period, for the agonist assay, 5 μl of the test, vehicle, or control articles at concentration of 5 times of final concentration were applied to the cells without stimulation. For the positive allosteric modulation (PAM) and antagonist assay, after test article application, the cells were stimulated with either low dose (for PAM) or high dose (for antagonist) of Ach.
# The signal elicited in the presence of the positive control agonist and allosteric modulator (10 μM Ach+1 μM epibatidine) was set to 100% and the signal from the agonist control (10 μM Ach) was set to 0%.
# [4] = system: TNFα-induced NFκB activity; experiment: NFκB luciferase assay (inhibition of TNFα-induced NFκB activity) in HEK293 reporter cells; assay type: cell-based, Human; conditions: HEK293 reporter cells challenged with TNFα for three hours
# Protocol: The smokeless tobacco used in these experiments was plain long-leaf Copenhagen tobacco purchased from a local vendor. Crude extract was extracted with methanol and water and clarified by centrifugation and filtration. The alkaloid extract was prepared from sodium hydroxide and methanol extraction, organic phase separation and purification. All treatment samples were prepared as a function of weight (μg/ml), and all samples were diluted in DMSO.
# Human […] kidney cells (HEK293) transfected with an NFκB luciferase reporter were challenged with TNFα for three hours, then samples were applied to the challenged cells.
# nAChR α7 = biological target: T1, nAChR α7 (Homo sapiens, UniProt P36544); experiment: nAChR α7 channel agonist assay (FLIPR, with PNU-120596); assay type: cell-based; conditions: with 10 μM PNU-120596; maximal stimulation not achieved
# T1 construct: host or cells: CHO cells
# Protocol: Therefore, the assay of agonist activity for either Ach or for the test articles was conducted in the presence of the positive allosteric modulator.
# Sequence of nAChR α3/β4 (P32297 32-505): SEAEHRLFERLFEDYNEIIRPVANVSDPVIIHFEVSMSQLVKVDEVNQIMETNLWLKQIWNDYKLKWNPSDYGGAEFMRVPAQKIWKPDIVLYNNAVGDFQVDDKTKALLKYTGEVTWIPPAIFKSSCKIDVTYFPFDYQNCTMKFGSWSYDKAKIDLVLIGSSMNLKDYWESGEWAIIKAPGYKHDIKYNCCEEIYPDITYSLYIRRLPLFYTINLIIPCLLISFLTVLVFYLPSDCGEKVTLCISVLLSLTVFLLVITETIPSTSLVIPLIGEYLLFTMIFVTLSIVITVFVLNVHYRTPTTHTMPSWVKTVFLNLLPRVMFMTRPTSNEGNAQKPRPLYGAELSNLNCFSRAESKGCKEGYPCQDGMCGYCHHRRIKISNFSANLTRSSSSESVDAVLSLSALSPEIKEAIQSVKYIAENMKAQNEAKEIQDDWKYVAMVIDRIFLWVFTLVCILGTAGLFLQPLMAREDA
# Sequence of nAChR α3/β4 (P30926 22-498): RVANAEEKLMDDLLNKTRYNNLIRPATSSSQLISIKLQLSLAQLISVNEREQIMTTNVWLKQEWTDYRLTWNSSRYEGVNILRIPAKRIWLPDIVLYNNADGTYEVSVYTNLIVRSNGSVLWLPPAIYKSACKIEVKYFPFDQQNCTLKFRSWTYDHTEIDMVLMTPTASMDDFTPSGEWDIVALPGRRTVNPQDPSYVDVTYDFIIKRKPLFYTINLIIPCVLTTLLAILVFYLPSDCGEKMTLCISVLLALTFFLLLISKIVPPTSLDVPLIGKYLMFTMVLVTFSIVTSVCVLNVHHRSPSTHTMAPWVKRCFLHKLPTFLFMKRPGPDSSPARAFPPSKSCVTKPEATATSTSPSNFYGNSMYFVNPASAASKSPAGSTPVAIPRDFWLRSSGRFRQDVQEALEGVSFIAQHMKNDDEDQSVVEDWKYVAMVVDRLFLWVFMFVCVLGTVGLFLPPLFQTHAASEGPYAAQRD
# T1 sequence (P36544 23-502): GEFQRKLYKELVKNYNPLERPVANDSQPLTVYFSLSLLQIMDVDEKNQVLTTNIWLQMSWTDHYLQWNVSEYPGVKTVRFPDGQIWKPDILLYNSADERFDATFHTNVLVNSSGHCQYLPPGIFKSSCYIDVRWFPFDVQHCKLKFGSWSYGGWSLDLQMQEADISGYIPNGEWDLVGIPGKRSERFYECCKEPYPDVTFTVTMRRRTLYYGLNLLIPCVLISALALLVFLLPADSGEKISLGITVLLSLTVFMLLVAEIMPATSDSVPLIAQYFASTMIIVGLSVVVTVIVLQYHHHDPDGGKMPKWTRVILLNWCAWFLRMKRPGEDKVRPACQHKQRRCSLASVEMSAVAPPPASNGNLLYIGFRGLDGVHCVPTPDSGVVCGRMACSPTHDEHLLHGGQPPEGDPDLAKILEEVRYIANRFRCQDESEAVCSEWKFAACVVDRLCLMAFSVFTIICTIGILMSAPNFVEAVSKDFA
smiles,measurement,setting,value
"CN1CCCC1c1cccnc1.O=C(O)C(O)C(O)C(=O)O (single isomer, unassigned; (-)) [Nicotine, (−) Nicotine hydrogen tartrate, reference compound]",ACTIVATED PARTIAL THROMBOPLASTIN TIME,[1]; female,16.9 s
same,ACTIVATED PARTIAL THROMBOPLASTIN TIME,[1]; male,16.3 s
same,aPTT versus vehicle control,"[1]; nicotine 0.75 mg/kg single i.v., male and female, day 15",aPTT was significantly lower relative to the vehicle control group
same,ACTIVE PARTIAL THROMBOPLASTIN TIME,[1]; female rats,18.7 s and 15 s
same,ACTIVE PARTIAL THROMBOPLASTIN TIME,[1]; male rats,15 s and 16.3 s and 17.6 s and 16.2 s
same,Mean food consumption/day,[2]; Female,20.6 g
same,Mean weigth increase by day 14,[2]; Female,40.8 g
same,Mean food consumption/day,[2]; Male,26.4 g
same,Mean weigth increase by day 14,[2]; Male,98.5 g
same,day 13 B.W.,[2]; individual female rats,232.6 g and 251.8 g and 227.3 g
same,day 14 B.W.,[2]; individual female rats,230.4 g and 249 g and 229 g
same,day 13 B.W.,[2]; individual male rats,330 g and 312.3 g and 292.4 g and 299.4 g
same,day 14 B.W.,[2]; individual male rats,339.2 g and 316.1 g and 297.6 g and 305 g
same,B.W. day 1,"[2]; day 1, female rats",191.6 g and 206.1 g and 192.8 g
same,B.W. day 1,"[2]; day 1, male rats",227 g and 228 g and 223 g and 219 g
same,B.W. day 2,"[2]; day 2, female rats",190.5 g and 213.4 g and 195.7 g
same,B.W. day 2,"[2]; day 2, male rats",234.9 g and 239.1 g and 229.5 g and 229.1 g
same,B.W. day 3,"[2]; day 3, female rats",198 g and 217.1 g and 199.1 g
same,B.W. day 3,"[2]; day 3, male rats",243 g and 245.1 g and 241.1 g and 238.4 g
same,B.W. day 4,"[2]; day 4, female rats",207.8 g and 223.8 g and 205.6 g
same,B.W. day 4,"[2]; day 4, male rats",260.5 g and 263.4 g and 257.6 g and 252.9 g
same,B.W. day 5,"[2]; day 5, female rats",212.3 g and 226.3 g and 206.4 g
same,B.W. day 5,"[2]; day 5, male rats",272.1 g and 269.1 g and 260.7 g and 258.7 g
same,B.W. day 6,"[2]; day 6, female rats",207 g and 228.9 g and 205.5 g
same,B.W. day 6,"[2]; day 6, male rats",259 g and 275.4 g and 270 g and 262.8 g
same,B.W. day 7,"[2]; day 7, female rats",213 g and 240.1 g and 218.3 g
same,B.W. day 7,"[2]; day 7, male rats",279.9 g and 295.8 g and 288 g and 277.8 g
same,B.W. day 8,"[2]; day 8, female rats",218 g and 237.4 g and 217.4 g
same,B.W. day 8,"[2]; day 8, male rats",284 g and 293.7 g and 285.6 g and 278 g
same,B.W. day 9,"[2]; day 9, female rats",219.1 g and 236.4 g and 213.2 g
same,B.W. day 9,"[2]; day 9, male rats",274.9 g and 303.5 g and 285.6 g and 274.6 g
same,B.W. day 10,"[2]; day 10, female rats",221.8 g and 240.1 g and 220.5 g
same,B.W. day 10,"[2]; day 10, male rats",286.1 g and 314.2 g and 301 g and 283.4 g
same,B.W. day 11,"[2]; day 11, female rats",222.8 g and 244.5 g and 226 g
same,B.W. day 11,"[2]; day 11, male rats",292.2 g and 317.7 g and 300.1 g and 291.5 g
same,B.W. day 12,"[2]; day 12, female rats",232.1 g and 248.9 g and 227.7 g
same,B.W. day 12,"[2]; day 12, male rats",290.7 g and 329.5 g and 303 g and 287.3 g
same,Average Daily Food Consumption per Rat,"[2]; female, day 1",23.7 grams and 14.8 grams
same,Average Daily Food Consumption per Rat,"[2]; female, day 2",18.4 grams and 24.9 grams
same,Average Daily Food Consumption per Rat,"[2]; female, day 3",22.2 grams and 22.3 grams
same,Average Daily Food Consumption per Rat,"[2]; female, day 4",19.4 grams and 15.8 grams
same,Average Daily Food Consumption per Rat,"[2]; female, day 5",18.7 grams and 16.2 grams
same,Average Daily Food Consumption per Rat,"[2]; female, day 6",20.0 grams and 17.2 grams
same,Average Daily Food Consumption per Rat,"[2]; female, day 7",19.4 grams and 21.7 grams
same,Average Daily Food Consumption per Rat,"[2]; female, day 8",20.1 grams and 20.6 grams
same,Average Daily Food Consumption per Rat,"[2]; female, day 9",24.4 grams and 21.5 grams
same,Average Daily Food Consumption per Rat,"[2]; female, day 10",22.6 grams and 20.4 grams
same,Average Daily Food Consumption per Rat,"[2]; female, day 11",20.4 grams and 20.3 grams
same,Average Daily Food Consumption per Rat,"[2]; female, day 12",22.5 grams and 21.7 grams
same,Average Daily Food Consumption per Rat,"[2]; female, day 13",23.7 grams and 21.2 grams
same,Average Daily Food Consumption per Rat,"[2]; female, day 14",24.4 grams and 19.6 grams
same,Average Daily Food Consumption per Rat,"[2]; males, day 1",20.8 grams and 19.3 grams
same,Average Daily Food Consumption per Rat,"[2]; males, day 2",26.2 grams and 23.5 grams
same,Average Daily Food Consumption per Rat,"[2]; males, day 3",26.6 grams and 26.2 grams
same,Average Daily Food Consumption per Rat,"[2]; males, day 4",26.2 grams and 23.7 grams
same,Average Daily Food Consumption per Rat,"[2]; males, day 5",25.1 grams and 21.9 grams
same,Average Daily Food Consumption per Rat,"[2]; males, day 6",23.8 grams and 25.9 grams
same,Average Daily Food Consumption per Rat,"[2]; males, day 7",26.5 grams and 27.9 grams
same,Average Daily Food Consumption per Rat,"[2]; males, day 8",24.0 grams and 28.2 grams
same,Average Daily Food Consumption per Rat,"[2]; males, day 9",27.3 grams and 26.1 grams
same,Average Daily Food Consumption per Rat,"[2]; males, day 10",29.6 grams and 30.9 grams
same,Average Daily Food Consumption per Rat,"[2]; males, day 11",30.1 grams and 29.1 grams
same,Average Daily Food Consumption per Rat,"[2]; males, day 12",26.5 grams and 23.4 grams
same,Average Daily Food Consumption per Rat,"[2]; males, day 13",31.9 grams and 28.4 grams
same,Average Daily Food Consumption per Rat,"[2]; males, day 14",32.7 grams and 26.4 grams
same,physical signs,[3],experienced tremors immediately post dose
same,potentiation,nAChR α3/β4,Neither nicotine nor anatabine potentiated the activity
same,TNFα-induced NFκB-mediated transcription of luciferase,[4],reduce TNFα-induced NFκB-mediated transcription
same,agonist activity,nAChR α7,showed agonist activity
